“Also recorded” adds a separate entry of the source.
Experiments:
mutant EGFR-L858R-T790M = molecular target: T1, mutant EGFR-L858R-T790M (Homo sapiens, UniProt P00533, L858R/T790M); experiment: Mutant EGFR protein in NCI-H1975 tumors after single oral dose (western blot); format: in vivo, female BALB/c nude mice
T1 construct: female BALB/c nude mice bearing NCI-H1975 NSCLC tumors; from tissue; host or cells: NCI-H1975 subcutaneous xenograft tumours from female BALB/c nude mice
Protocol: Compound 1 was administered as a single oral (PO) dose at 10, 25, or 50 mg/kg to female BALB/c nude mice with NCI-H1975 tumors. At 4h, 6h or 12h tumors were harvested and the protein expression of mutant EGFR-L858R and phospho-EGFR was measured by western blot.
A xenograft study was conducted in female BALB/c nude mice bearing NCI-H1975 NSCLC tumors. Female nude mice were inoculated subcutaneously in the right flank with 5×10^6 tumors cells in 0.1 mL of PBS. Tumor volume was measured twice weekly in two dimensions using calipers, and volume (mm^3) was calculated using the formula: V=0.5 a×b2 where a and b are the long and short diameters of the tumor in mm, respectively. […]
All agents were administered to mice bearing NCI-H1975 tumors on day 0 as a single oral (PO) dose. […] Protein concentration was quantified using a Pierce™ BCA Protein Assay Kit, samples were reduced, and equal protein amounts were then loaded onto a western blot gel for analysis. Tumors were analyzed for EGFR Receptor L858R Mutant Specific (CST, 3197) or Phospho-EGFR Receptor Tyr1068 (CST, 2234) expression. The intensity of individual bands was measured for data analysis using Image Studio software. Protein expression was quantitated in relation to the reference protein, alpha-tubulin, to control for total protein concentration. […]

EGFR-L861Q = molecular target: T2, EGFR-L861Q (Homo sapiens, UniProt P00533, L861Q); experiment: KINOMEscan scanMAX, EGFR-L861Q; format: binding; settings: 100 nM
T2 construct: purchased Eurofins DiscoverX KINOMEscan scanMAX; host or cells: E. coli BL21-derived (T7 phage) or HEK-293
Protocol: Kinome-wide binding selectivity of CFT8919 was assessed via the KINOMEscan scanMAX assay at Eurofins DiscoverX (Freemont, CA, USA). Compound was tested at 100 nM against a diverse panel of 468 kinases. The size of circles was mapped onto the kinase phylogenetic tree utilizing DiscoverX TREEspot using <50% of % control as a cutoff.
For most assays, kinase-tagged T7 phage strains were grown in parallel in 24-well blocks in an E. coli host derived from the BL21 strain. E. coli were grown to log-phase and infected with T7 phage from a frozen stock (multiplicity of infection=0.4) and incubated with shaking at 32° C. until lysis (90-150 minutes). The lysates were centrifuged (6,000×g) and filtered (0.2 μm) to remove cell debris. The remaining kinases were produced in HEK-293 cells and subsequently tagged with DNA for qPCR detection. Streptavidin-coated magnetic beads were treated with biotinylated small molecule ligands for 30 minutes at room temperature to generate affinity resins for kinase assays. The liganded beads were blocked with excess biotin and washed with blocking buffer (SeaBlock (Pierce), 1% BSA, 0.05% Tween 20, 1 mM DTT) to remove unbound ligand and to reduce non-specific phage binding. […] Test compounds were prepared as 40× stocks in 100% DMSO and directly diluted into the assay. […] The kinase concentration in the eluates was measured by qPCR.

[1] = test system: intracranial NCI-H1975-luciferase expressing NSCLC tumors; experiment: NCI-H1975-luc intracranial tumor model (intracranial injection into forebrain); format: in vivo, female BALB/c nude mice; settings: 100 mg/kg/day PO BID
Protocol: Compound 1 efficacy in a NCI-H1975-luciferase expressing intracranial tumor model established by injecting tumor cells intracranially into the mouse forebrain was evaluated at […]: 100 mg/kg/day. Compound 1 was administered BID (twice a day) orally (PO). Eight mice were used per group.
2×10^5 luciferase-expressing NCI-H1975-luc tumor cells suspended in 2 μL RPMI-1640 media were injected into the right forebrain of female BALB/c nude mice. Tumor growth was monitored using imaging analysis. Mice were injected intraperitoneally with 15 mg/mL of D-luciferin and anesthetized with 1-2% isoflurane inhalation. 10 minutes post luciferin injection, mice were imaged using IVIS Lumina III (Perkin Elmer) and total bioluminescence signal (BLI, photons/s) was measured in a region of interest (ROI). BLI from ROI were quantified and used as an indicator of tumor burden. 7 days post tumor cell inoculation mice were randomized into groups of 8 with a mean BLI of 27×10^6 photons/s. All agents were administered to mice bearing NCI-H1975-luc brain tumors on day 8. […] Body weight and MTV were measured on a 2× weekly schedule. Statistical analysis was calculated using the Mann-Whitney U test. Data are expressed as bioluminescent signal (photons/s).

## O=C1CC[C@H](Nc2ccc(N3CCC(O)(CC(=O)N4CC5(C4)CN(c4ccc(-c6cc(F)c7c(c6)C(=O)N(C(C(=O)Nc6nccs6)c6ncn8c6CCC8)C7)cc4)C5)CC3)c(F)c2)C(=O)N1 (stereo partly drawn) [Compound 1, 2-(6,7-dihydro-5H-pyrrolo[1,2-c]imidazol-1-yl)-2-[6-[4-[2-[2-[1-[4-[[(3S)-2,6-dioxo-3-piperidyl]amino]-2-fluoro-phenyl]-4-hydroxy-4-piperidyl]acetyl]-2,6-diazaspiro[3.3]heptan-6-yl]phenyl]-4-fluoro-1-oxo-isoindolin-2-yl]-N-thiazol-2-yl-acetamide]
Mutant EGFR-L858R-T790M; after a single oral dose, NCI-H1975 tumors
  mutant EGFR degraded in vivo: up to 85%
Mutant EGFR-L858R-T790M; single PO dose 10, 25 or 50 mg/kg, 4, 6 and 12 hours
  mutant EGFR-L858R protein expression in tumors: potent EGFR degradation
EGFR-L861Q
  percent binding remaining: < 50%
[1]; NCI-H1975-luc cells intracranial
  Statistical Significance Compared to Vehicle: 0.001
[1]; intracranial forebrain model, 100 mg/kg/day
  efficacy on NCI-H1975-luc BLI (tumor burden): reduced tumor volume; also recorded: tumor regression

Reference: patent publication US20240158418A1 (C4 Therapeutics, Inc., priority 2021, published 2024)
